Active and inactive are the calls of the source. No cut-off for these calls is given here.
Assays:
[1] = target: Cholinesterase (Equus caballus, UniProt P81908); test: Inhibition of equine serum BuChE using butyrylthiocholine chloride as substrate incubated for 15 to 20 mins by Ellman's method; type: cell-free
[2] = target: Acetylcholinesterase (Electrophorus electricus, UniProt O42275); test: Inhibition of electric eel AChE using acetylthiocholine iodide as substrate incubated for 15 to 20 mins by Ellman's method
[3] = Selectivity index, ratio of IC50 for equine serum BuChE using butyrylthiocholine chloride as substrate to IC50 for electric eel AChE using acetylthiocholine iodide as substrate incubated for 15 to 20 mins by Ellman's method; settings: time 15-20 min
[4] = Antioxidant activity assessed as ABTS radical scavenging activity; type: functional
[5] = tested on: HepG2; test: Cytotoxicity against human HepG2 cells assessed as reduction in cell viability; type: ADME, cell-based
[6] = Cytotoxicity against human PBMC assessed as reduction in cell viability; type: ADME, tissue-based
[7] = target: Acetylcholinesterase (Electrophorus electricus) (UniProt O42275); test: Mixed type inhibition of electric eel AChE assessed as increase in Km at 3.2 to 12.8 uM using varying levels of acetylthiocholine iodide as substrate by Lineweaver-Burk plot analysis; settings: dose 3.2-12.8 µM
[8] = target: Acetylcholinesterase (Electrophorus electricus) (UniProt O42275); test: Mixed type inhibition of electric eel AChE assessed as decrease in Vmax at 3.2 to 12.8 uM using varying levels of acetylthiocholine iodide as substrate by Lineweaver-Burk plot analysis; settings: dose 3.2-12.8 µM

Chain of Cholinesterase (P81908 whole entry): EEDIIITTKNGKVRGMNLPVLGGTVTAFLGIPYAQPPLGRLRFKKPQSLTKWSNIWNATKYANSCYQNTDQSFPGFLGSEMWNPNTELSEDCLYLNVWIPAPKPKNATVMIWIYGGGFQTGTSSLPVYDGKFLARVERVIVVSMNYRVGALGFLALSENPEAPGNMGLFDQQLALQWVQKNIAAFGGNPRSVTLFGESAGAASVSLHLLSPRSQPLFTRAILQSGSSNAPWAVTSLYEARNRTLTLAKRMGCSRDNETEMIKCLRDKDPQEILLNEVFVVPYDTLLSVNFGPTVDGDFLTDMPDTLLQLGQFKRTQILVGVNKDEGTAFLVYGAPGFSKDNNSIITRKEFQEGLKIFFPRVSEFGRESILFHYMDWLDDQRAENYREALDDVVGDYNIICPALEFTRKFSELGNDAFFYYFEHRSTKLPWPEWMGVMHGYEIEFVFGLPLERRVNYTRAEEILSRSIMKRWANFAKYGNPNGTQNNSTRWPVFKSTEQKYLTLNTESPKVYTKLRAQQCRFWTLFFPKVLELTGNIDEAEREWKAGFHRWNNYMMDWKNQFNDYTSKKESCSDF
Chain of Acetylcholinesterase (O42275 whole entry): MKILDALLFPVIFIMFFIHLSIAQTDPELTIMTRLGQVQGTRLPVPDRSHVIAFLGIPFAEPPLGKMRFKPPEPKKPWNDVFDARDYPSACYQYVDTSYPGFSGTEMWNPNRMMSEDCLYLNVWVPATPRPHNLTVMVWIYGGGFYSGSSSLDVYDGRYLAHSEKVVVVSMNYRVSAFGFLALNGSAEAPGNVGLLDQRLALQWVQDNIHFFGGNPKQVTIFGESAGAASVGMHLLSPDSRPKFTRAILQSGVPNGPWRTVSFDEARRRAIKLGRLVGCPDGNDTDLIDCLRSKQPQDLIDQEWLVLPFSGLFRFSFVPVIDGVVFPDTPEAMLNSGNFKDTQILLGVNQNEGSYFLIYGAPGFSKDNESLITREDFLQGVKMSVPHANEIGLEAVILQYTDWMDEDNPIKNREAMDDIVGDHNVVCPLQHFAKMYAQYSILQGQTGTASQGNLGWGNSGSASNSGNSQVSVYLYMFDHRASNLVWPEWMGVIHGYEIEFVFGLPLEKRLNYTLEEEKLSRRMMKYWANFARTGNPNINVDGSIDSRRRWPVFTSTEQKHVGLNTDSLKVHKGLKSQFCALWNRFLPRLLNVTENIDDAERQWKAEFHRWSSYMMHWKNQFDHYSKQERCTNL
Chain of Acetylcholinesterase (Electrophorus electricus) (O42275 24-633 limits assumed): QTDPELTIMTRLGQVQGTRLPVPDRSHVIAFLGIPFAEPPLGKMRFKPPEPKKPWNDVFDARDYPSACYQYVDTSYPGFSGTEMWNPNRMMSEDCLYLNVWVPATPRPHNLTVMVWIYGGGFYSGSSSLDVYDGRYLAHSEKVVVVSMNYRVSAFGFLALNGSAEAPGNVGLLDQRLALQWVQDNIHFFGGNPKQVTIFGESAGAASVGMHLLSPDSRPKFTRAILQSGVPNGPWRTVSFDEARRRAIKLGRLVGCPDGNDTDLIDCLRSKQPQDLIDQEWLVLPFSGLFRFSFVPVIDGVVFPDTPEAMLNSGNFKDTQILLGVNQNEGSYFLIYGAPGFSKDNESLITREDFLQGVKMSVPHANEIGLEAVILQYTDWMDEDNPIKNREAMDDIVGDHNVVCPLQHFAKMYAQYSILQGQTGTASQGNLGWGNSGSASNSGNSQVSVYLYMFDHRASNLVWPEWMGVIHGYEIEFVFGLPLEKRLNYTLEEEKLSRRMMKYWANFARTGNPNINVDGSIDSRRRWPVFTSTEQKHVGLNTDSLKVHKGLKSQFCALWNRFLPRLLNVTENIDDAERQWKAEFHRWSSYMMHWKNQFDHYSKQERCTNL

| Compound | IC50 [1] | IC50 [2] | Ratio IC50 [3] | IC50 [4] | IC50 [5] | IC50 [6] | inhibition [7] | inhibition [8] |
| --- | --- | --- | --- | --- | --- | --- | --- | --- |
| CC(C)=CCOc1ccc2c(c1)OC(c1cccc(Cl)c1)CC2=O (centres undefined) | 3.59 µM | 1500 nM | 2.39 | 6.3 µM | – | – | – | – |
| CC(C)=CCOc1ccc2c(c1)OC(c1ccc(Cl)cc1Cl)CC2=O (centres undefined) | 3.47 µM | 1330 nM | 2.61 | 5.26 µM | – | – | – | – |
| CC(C)=CCOc1ccc2c(c1)OC(c1cccc(F)c1)CC2=O (centres undefined) | 4.02 µM | 1480 nM | 2.72 | 4.28 µM | – | – | – | – |
| CC(C)=CCOc1cc(O)c2c(c1)OC(c1ccc(O)cc1)CC2=O (centres undefined) | 5.38 µM | 2370 nM | 2.27 | 5.34 µM | – | – | – | – |
| CC(C)=CCOc1ccc2c(c1)OC(c1ccc(C)cc1)CC2=O (centres undefined) | 4.09 µM | 1120 nM | 3.65 | 4.44 µM | – | – | – | – |
| CC(C)=CCOc1ccc2c(c1)OC(c1ccccc1Cl)CC2=O (centres undefined) | 5.37 µM | 3170 nM | 1.69 | 8.02 µM | – | – | – | – |
| CC(C)=CCOc1cc(O)c2c(c1)OC(c1ccc(F)cc1)CC2=O (centres undefined) | 6.84 µM | 240 nM | 28.5 | 6.06 µM | – | – | – | – |
| COc1ccc(C2CC(=O)c3ccc(OCC=C(C)C)cc3O2)c(OC)c1 (centres undefined) | 5.65 µM | 370 nM | 15.3 | 8.18 µM | – | – | – | – |
| CC(C)=CCOc1cc(O)c2c(c1)OC(c1ccccc1Br)CC2=O (centres undefined) | 3.87 µM | 1180 nM | 3.28 | 3.82 µM | – | – | – | – |
| CC(C)=CCOc1cc(O)c2c(c1)OC(c1ccc(Cl)cc1Cl)CC2=O (centres undefined) | 6.94 µM | 1040 nM | 6.67 | 3.34 µM | – | – | – | – |
| CC(C)=CCOc1cc(O)c2c(c1)OC(c1cccc(F)c1)CC2=O (centres undefined) | 5.09 µM | 920 nM | 5.53 | 7.24 µM | – | – | – | – |
| CC(C)=CCOc1ccc2c(c1)OC(c1ccc(F)cc1)CC2=O (centres undefined) | 2.58 µM | 550 nM | 4.69 | 7.32 µM | – | – | – | – |
| CC(C)=CCOc1cc(O)c2c(c1)OC(c1ccccc1)CC2=O (centres undefined) | 6.54 µM | 3040 nM | 2.15 | 7.32 µM | – | – | – | – |
| CC(C)=CCOc1cc(O)c2c(c1)OC(c1ccc(C)cc1)CC2=O (centres undefined) | 6.54 µM | 1000 nM | 6.54 | 4.36 µM | – | – | – | – |
| CC(C)=CCOc1cc(O)c2c(c1)OC(c1ccc(C)cc1C)CC2=O (centres undefined) | 3.92 µM | 720 nM | 5.44 | 6.38 µM | – | – | – | – |
| CC(C)=CCOc1ccc2c(c1)OC(c1ccc(C)cc1C)CC2=O (centres undefined) | 3.42 µM | 940 nM | 3.64 | 8.26 µM | – | – | – | – |
| CC(C)=CCOc1ccc2c(c1)OC(c1ccc(Br)cc1)CC2=O (centres undefined) | 3.87 µM | 770 nM | 5.03 | 8.12 µM | – | – | – | – |

| Compound | IC50 [1] | IC50 [2] | Ratio IC50 [3] | IC50 [4] | IC50 [5] | IC50 [6] | inhibition [7] | inhibition [8] |
| --- | --- | --- | --- | --- | --- | --- | --- | --- |
| CC(C)=CCOc1cc(O)c2c(c1)OC(c1cccc(Br)c1)CC2=O (centres undefined) | 5.22 µM | 820 nM | 6.37 | 4.04 µM | – | – | – | – |
| CC(C)=CCOc1ccc2c(c1)OC(c1ccc(O)cc1)CC2=O (centres undefined) | 5.02 µM | 3090 nM | 1.62 | 6.67 µM | – | – | – | – |
| CC(C)=CCOc1cc(O)c2c(c1)OC(c1ccc(Br)cc1)CC2=O (centres undefined) | 6.04 µM | 110 nM | 54.9 | 2.77 µM | > 80 µM | > 100 µM | – | – |
| O=C1C[C@@H](c2ccc(O)cc2)Oc2cc(O)ccc21 [LIQUIRTIGENIN] | 14 µM | 9100 nM | 1.55 | 8.96 µM | – | – | – | – |
| CC(C)=CCOc1cc(O)c2c(c1)OC(c1ccc(Cl)cc1)CC2=O (centres undefined) | 7.07 µM | 1170 nM | 6.04 | 7.02 µM | – | – | – | – |
| CC(C)=CCOc1cc(O)c2c(c1)OC(c1ccccc1Cl)CC2=O (centres undefined) | 7.54 µM | 2140 nM | 3.52 | 4.27 µM | – | – | – | – |
| Cc1c(C)c2c(c(C)c1O)CCC(C)(C(=O)O)O2 (centres undefined) [TROLOX] | – | – | – | 6.12 µM | – | – | – | – |
| CC(C)=CCOc1cc(O)c2c(c1)OC(c1ccccc1F)CC2=O (centres undefined) | 7.37 µM | 1270 nM | 5.8 | 5.3 µM | – | – | – | – |
| CC(C)=CCOc1ccc2c(c1)OC(c1cccc(Br)c1)CC2=O (centres undefined) | 4.5 µM | 1840 nM | 2.45 | 5.28 µM | – | – | – | – |
| CC(C)=CCOc1ccc2c(c1)OC(c1ccccc1F)CC2=O (centres undefined) | 5.47 µM | 1920 nM | 2.85 | 6.36 µM | – | – | – | – |
| COc1ccc(C2CC(=O)c3c(O)cc(OCC=C(C)C)cc3O2)c(OC)c1 (centres undefined) | 5.46 µM | 90 nM | 60.7 | 2.32 µM | > 100 µM | > 100 µM | Active | Active |
| CC(C)=CCOc1ccc2c(c1)OC(c1ccccc1)CC2=O (centres undefined) | 9.54 µM | 5320 nM | 1.79 | 6.07 µM | – | – | – | – |
| COc1ccc(C2CC(=O)c3ccc(OCC=C(C)C)cc3O2)cc1 (centres undefined) | 4.54 µM | 630 nM | 7.21 | 10.2 µM | – | – | – | – |
| CC(C)=CCOc1ccc2c(c1)OC(c1ccc(Cl)cc1)CC2=O (centres undefined) | 4.22 µM | 2120 nM | 1.99 | 6.97 µM | – | – | – | – |
| CC(C)=CCOc1ccc2c(c1)OC(c1ccccc1Br)CC2=O (centres undefined) | 5.02 µM | 2020 nM | 2.49 | 3.18 µM | – | – | – | – |
| COc1ccc(C2CC(=O)c3c(O)cc(OCC=C(C)C)cc3O2)cc1 (centres undefined) | 5.77 µM | 270 nM | 21.4 | 5.08 µM | – | – | – | – |
| CC(C)=CCOc1cc(O)c2c(c1)OC(c1cccc(Cl)c1)CC2=O (centres undefined) | 6.82 µM | 990 nM | 6.89 | 6.06 µM | – | – | – | – |
